This note sets out measurements from US20090035220A1, “HIGH THROUGHPUT SCREENING SYSTEM AND METHOD” (priority 2007, published 2009).

This assay deals with zebrafish larvae. Description: Ammonia excretion as an indicator of locomotor response to electrical stimulus. Type of assay: in vivo, Danio rerio. The following applies: MS-222 0.10 mg/mL in media; 30 larvae (4 dpf) per well; stimuli 3 uA, 50 msec, 30 times per hour for 12 hours; colorimetric ammonia assay; FIG. 7. As to the method:
To create the graphs in the subsequent Examples, the initial conditions consisted of harvesting fertilized zebrafish eggs and placing them into embryo media and housed in an incubator with a constant temperature of 28.5° C. for the first several days of development, and throughout the course of experimentation. Embryo media consists of ultrapure water with 5 mM NaCl, 0.17 mM KCl, 0.33 mM CaCl2, 0.3 mm MgSO4 added. Embryo media was be used to make all final dilutions of test agents.
After the first 24 hours of incubation, the zebrafish larvae were treated with pronase solution (2 mg/ml in Embryo Medium) for several minutes to remove the larvae from their chorion. […] The 96-well plates were maintained in incubators at 28.5° C. and were removed from incubators only for testing or to refresh media.
Excretion of ammonia is a necessary consequence of protein breakdown. When proteins are converted to carbohydrates to provide energy, the amino group is removed and must be dealt with. In animals, the amino group is quickly oxidized to form ammonia. […] The concentration of ammonia excreted by the larvae was quantified by taking a sample of the media following the Examples and assaying it with a commercially available colorimetric assay kit (Ammonia Assay Kit #A1000, Sigma Biochemical) […]

SMILES strings stand for the structures.

On to `CCOC(=O)c1cccc(N)c1.CS(=O)(=O)O` [MS-222], for which the “locomotor response of zebrafish to an electrical stimulus, based on excretion of ammonia” value is on record as “decreases the locomotor response”.
